Earlier results as cited in PMC5742115, “Pharmacophore Modeling and in Silico/in Vitro Screening for Human Cytochrome P450 11B1 and Cytochrome P450 11B2 Inhibitors” (Frontiers in Chemistry, 2017).
Where two headings read alike, the source gives them in different places.

Legend:
[1] = tested on: CYP11B2; conditions: reported activity, supplementary Table 1, read-out: CYP11B2 IC50, cited from earlier work
[2] = tested on: CYP11B1; conditions: reported activity, supplementary Table 1, read-out: CYP11B1 IC50, cited from earlier work

## CCOC(=O)c1cncn1[C@H](C)c1ccccc1 [CHEMBL681, Etomidate]
[1]; ref Dorr et al., 1984
  IC50: 0.1 nM
[1]; ref Roumen et al., 2010
  IC50: 1.7 nM

## O=C1CCc2cc(-c3cccnc3)ccc2N1 [CHEMBL62811]
[2]; ref Lucas et al., 2008b
  IC50: 6750 nM
[1]; ref Lucas et al., 2008b
  IC50: 28 nM

## O=c1c2ccccc2oc2c(Br)ccc(Cn3ccnc3)c12 [CHEMBL78322]
[2]; ref Gobbi et al., 2013
  IC50: 6.7 nM
[1]; ref Gobbi et al., 2013
  IC50: 8.5 nM

## Cc1cncn1Cc1ccc(C#N)cc1 [CHEMBL162496]
[2]; ref Roumen et al., 2010
  IC50: 141 nM
[1]; ref Roumen et al., 2010
  IC50: 12 nM

## Brc1ccc2c(c1)CC/C2=C/c1c[nH]cn1 [CHEMBL174579]
[1]; ref Ulmschneider et al., 2005b
  IC50: 10.3 nM

## N#Cc1ccc2c(c1)CC/C2=C/c1ncc[nH]1 [CHEMBL175091]
[2]; ref Ulmschneider et al., 2005b
  IC50: 12.3 nM
[1]; ref Ulmschneider et al., 2005b
  IC50: 35.7 nM

## Clc1ccc2c(c1)/C(=C/c1cnc[nH]1)CCC2 [CHEMBL175144]
[1]; ref Ulmschneider et al., 2005b
  IC50: 47.3 nM

## Clc1ccc2c(c1)CC/C2=C\c1ccncc1 [CHEMBL175554]
[2]; ref Ulmschneider et al., 2005a
  IC50: 1520 nM
[1]; ref Ulmschneider et al., 2005a
  IC50: 18 nM

## COc1ccc2c(c1)CC/C2=C/c1ccncc1 [CHEMBL175609]
[1]; ref Ulmschneider et al., 2005a
  IC50: 55 nM

## Clc1ccc2c(c1)CC/C2=C/c1c[nH]cn1 [CHEMBL175688]
[2]; ref Ulmschneider et al., 2005b
  IC50: 19.5 nM
[1]; ref Ulmschneider et al., 2005b
  IC50: 3.7 nM

## COc1cccc2c1/C(=C/c1cccnc1)CC2 [CHEMBL175791]
[2]; ref Ulmschneider et al., 2005a
  IC50: 955 nM
[1]; ref Ulmschneider et al., 2005a
  IC50: 27 nM

## Clc1ccc2c(c1)CC/C2=C/c1ccncc1 [CHEMBL175799]
[2]; ref Ulmschneider et al., 2005a
  IC50: 301 nM
[1]; ref Ulmschneider et al., 2005a
  IC50: 36 nM

## C(=C1/CCc2ccccc21)/c1ccncc1 [CHEMBL175962]
[1]; ref Ulmschneider et al., 2005a
  IC50: 8 nM

## COc1ccc2c(c1)CCC/C2=C\c1ccncc1 [CHEMBL175979]
[1]; ref Ulmschneider et al., 2005a
  IC50: 22 nM

## COc1ccc2c(c1)CC/C2=C/c1cccnc1 [CHEMBL176101]
[2]; ref Ulmschneider et al., 2005a
  IC50: 790 nM
[1]; ref Ulmschneider et al., 2005a
  IC50: 26 nM

## Clc1cccc2c1CC/C2=C\c1cccnc1 [CHEMBL176287]
[2]; ref Ulmschneider et al., 2005a
  IC50: 304 nM
[1]; ref Ulmschneider et al., 2005a
  IC50: 9 nM

## COc1ccc2c(c1)CC/C2=C\c1cccnc1 [CHEMBL176609]
[2]; ref Ulmschneider et al., 2005a
  IC50: 1450 nM
[1]; ref Ulmschneider et al., 2005a
  IC50: 34 nM

## Brc1ccc2c(c1)CC/C2=C\c1cnc[nH]1 [CHEMBL177293]
[2]; ref Ulmschneider et al., 2005a
  IC50: 1940 nM
[1]; ref Ulmschneider et al., 2005a
  IC50: 37 nM
[1]; ref Ulmschneider et al., 2005b
  IC50: 92.8 nM

## C(=C1/CCc2ccccc21)/c1cnc[nH]1 [CHEMBL177468]
[2]; ref Ulmschneider et al., 2005b
  IC50: 29.5 nM
[1]; ref Ulmschneider et al., 2005b
  IC50: 41 nM

## C(=C1\CCc2ccccc21)/c1c[nH]cn1 [CHEMBL178036]
[2]; ref Ulmschneider et al., 2005b
  IC50: 6.1 nM
[1]; ref Ulmschneider et al., 2005b
  IC50: 11 nM

## Fc1ccc2c(c1)CC/C2=C/c1ccncc1 [CHEMBL179144]
[2]; ref Ulmschneider et al., 2005b
  IC50: 34 nM
[1]; ref Ulmschneider et al., 2005b
  IC50: 29 nM

## C(=C1\CCc2ccccc21)/c1ccncc1 [CHEMBL179149]
[2]; ref Ulmschneider et al., 2005a
  IC50: 931 nM
[1]; ref Ulmschneider et al., 2005a
  IC50: 18 nM

## Brc1ccc2c(c1)CC/C2=C/c1ccncc1 [CHEMBL179222]
[2]; ref Ulmschneider et al., 2005a
  IC50: 484 nM
[1]; ref Ulmschneider et al., 2005a
  IC50: 56 nM

## Fc1ccc2c(c1)CC/C2=C/c1c[nH]cn1 [CHEMBL179247]
[2]; ref Ulmschneider et al., 2005b
  IC50: 11.2 nM

## Cc1ccc2c(c1)/C(=C\c1ccncc1)CC2 [CHEMBL192077]
[1]; ref Ulmschneider et al., 2005a
  IC50: 8 nM

## COc1ccc2c(c1)CC/C2=C\c1cncs1 [CHEMBL192155]
[1]; ref Ulmschneider et al., 2005a
  IC50: 17 nM

## CCOc1ccc2cc(-c3cccnc3)ccc2c1 [CHEMBL193343]
[2]; ref Voets et al., 2005
  IC50: 5420 nM
[1]; ref Voets et al., 2005
  IC50: 12 nM

## COc1ccc2c(c1)CCC/C2=C/c1ccncc1 [CHEMBL193496]
[1]; ref Ulmschneider et al., 2005a
  IC50: 56 nM

## Brc1ccc2cc(-c3cccnc3)ccc2c1 [CHEMBL193534]
[2]; ref Voets et al., 2005
  IC50: 2940 nM
[1]; ref Voets et al., 2005
  IC50: 15 nM

## C(=C1/CC(c2ccccc2)c2ccccc21)/c1cccnc1 (centres unmarked) [CHEMBL193555]
[1]; ref Ulmschneider et al., 2005a
  IC50: 3 nM

## C(=C1/CCCc2ccccc21)/c1cccnc1 [CHEMBL193606]
[2]; ref Ulmschneider et al., 2005a
  IC50: 715 nM
[1]; ref Ulmschneider et al., 2005a
  IC50: 22 nM

## Clc1ccc2c(c1)CC/C2=C/c1cccnc1 [CHEMBL193652]
[2]; ref Ulmschneider et al., 2005a
  IC50: 270 nM
[1]; ref Ulmschneider et al., 2005a
  IC50: 73 nM

## c1ccc2cc(-c3cnco3)ccc2c1 [CHEMBL193653]
[2]; ref Voets et al., 2005
  IC50: 805 nM
[1]; ref Voets et al., 2005
  IC50: 12 nM

## COc1cc2c(cc1OC)/C(=C/c1ccncc1)CCC2 [CHEMBL193858]
[1]; ref Ulmschneider et al., 2005a
  IC50: 11 nM

## COc1ccc2ccc(-c3cccnc3)cc2c1 [CHEMBL193863]
[1]; ref Pinto-Bazurco Mendieta et al., 2013
  IC50: 68 nM

## Fc1ccc2c(c1)CC/C2=C\c1cccnc1 [CHEMBL193997]
[2]; ref Ulmschneider et al., 2005a
  IC50: 311 nM
[1]; ref Ulmschneider et al., 2005a
  IC50: 7 nM

## C/C(=C1/CCc2cc(F)ccc21)c1cccnc1 [CHEMBL194047]
[2]; ref Ulmschneider et al., 2005b
  IC50: 96 nM

## Brc1ccc2c(c1)CC/C2=C\c1cccnc1 [CHEMBL194440]
[2]; ref Ulmschneider et al., 2005a
  IC50: 320 nM
[1]; ref Ulmschneider et al., 2005a
  IC50: 171 nM

## COc1cc2ccccc2cc1-n1ccnc1 [CHEMBL194472]
[2]; ref Voets et al., 2005
  IC50: 81 nM
[1]; ref Voets et al., 2005
  IC50: 19 nM

## C(=C1c2ccccc2-c2ccccc21)c1cccnc1 [CHEMBL194928]
[1]; ref Ulmschneider et al., 2005a
  IC50: 6 nM

## Fc1ccc2c(c1)CC/C2=C\c1cncnc1 [CHEMBL195248]
[2]; ref Ulmschneider et al., 2005b
  IC50: 27 nM
[1]; ref Ulmschneider et al., 2005b
  IC50: 6 nM

## COc1ccc2c(c1)CC/C2=C/c1cncs1 [CHEMBL195354]
[1]; ref Ulmschneider et al., 2005a
  IC50: 5 nM

## Oc1ccc2cc(-c3cccnc3)ccc2c1 [CHEMBL195571]
[1]; ref Voets et al., 2005
  IC50: 23 nM

## Fc1ccc2c(c1)CC/C2=C\c1cccc2ncccc12 [CHEMBL195580]
[1]; ref Ulmschneider et al., 2005a
  IC50: 14 nM

## Fc1ccc2c(c1)CC/C2=C/c1cccc2ncccc12 [CHEMBL195653]
[1]; ref Ulmschneider et al., 2005a
  IC50: 31 nM

## c1ccc2cc(-n3ccnc3)ccc2c1 [CHEMBL195996]
[2]; ref Voets et al., 2005
  IC50: 1320 nM
[1]; ref Voets et al., 2005
  IC50: 39 nM

## COc1ccc2cc(-c3cccnc3)ccc2c1Br [CHEMBL196328]
[2]; ref Voets et al., 2005
  IC50: 4480 nM
[1]; ref Voets et al., 2005
  IC50: 33 nM

## N#Cc1ccc2cc(-c3cccnc3)ccc2c1 [CHEMBL196796]
[2]; ref Voets et al., 2005
  IC50: 691 nM
[1]; ref Voets et al., 2005
  IC50: 3 nM

## COc1ccc2cc(-c3cccnc3)ccc2c1Cl [CHEMBL197576]
[2]; ref Voets et al., 2005
  IC50: 2520 nM
[1]; ref Voets et al., 2005
  IC50: 13 nM

## c1cncc(-c2ccc3c4c(cccc24)CC3)c1 [CHEMBL199683]
[1]; ref Ulmschneider et al., 2006
  IC50: 14 nM

## c1ccc(-c2nc3ncc[nH]c-3n2)nc1 [CHEMBL201143]
[2]; ref Hille et al., 2011a
  IC50: 16 nM
[1]; ref Hille et al., 2011a
  IC50: 251 nM

## COc1ccc2c(c1)C=C(c1cccnc1)CC2 [CHEMBL206273]
[1]; ref Voets et al., 2006
  IC50: 5 nM

## O=c1cc(Cn2ccnc2)c2ccc(OCc3ccccc3)cc2o1 [CHEMBL225499]
[2]; ref Stefanachi et al., 2011
  IC50: 72 nM
[1]; ref Stefanachi et al., 2011
  IC50: 289 nM

## COc1ccc2c(c1)CC/C2=C\c1ccncc1 [CHEMBL359942]
[1]; ref Ulmschneider et al., 2005a
  IC50: 59 nM

## COc1ccc2c(c1)/C(=C/c1ccncc1)CC2 [CHEMBL365314]
[1]; ref Ulmschneider et al., 2005a
  IC50: 3 nM

## COc1ccc2c(c1)/C(=C\c1ccncc1)CC2 [CHEMBL370281]
[1]; ref Ulmschneider et al., 2005a
  IC50: 26 nM

## C(=C(c1ccccc1)c1ccccc1)c1cccnc1 [CHEMBL370317]
[1]; ref Ulmschneider et al., 2005a
  IC50: 9 nM

## Fc1ccc2c(c1)CC/C2=C/c1ccnc2ccccc12 [CHEMBL371275]
[1]; ref Ulmschneider et al., 2005a
  IC50: 14 nM

## Fc1ccc2c(c1)CC/C2=C\c1ccnc2ccccc12 [CHEMBL371509]
[1]; ref Ulmschneider et al., 2005a
  IC50: 20 nM

## Cc1ccc2c(c1)/C(=C/c1ccncc1)CC2 [CHEMBL371742]
[1]; ref Ulmschneider et al., 2005a
  IC50: 4 nM

## c1cncc(-c2ccc3cccc4c3c2CC4)c1 [CHEMBL372747]
[1]; ref Ulmschneider et al., 2006
  IC50: 10 nM

## CC1C/C(=C/c2cccnc2)c2ccccc21 (centres unmarked) [CHEMBL373074]
[1]; ref Ulmschneider et al., 2005a
  IC50: 41 nM

## C(=C(c1ccccc1)c1ccccc1)c1ccncc1 [CHEMBL381194]
[1]; ref Ulmschneider et al., 2005a
  IC50: 22 nM

## C(=C1c2ccccc2-c2ccccc21)c1ccncc1 [CHEMBL383145]
[1]; ref Ulmschneider et al., 2005a
  IC50: 5 nM

## COc1ccc(Cn2cncc2CCCO)cc1 [CHEMBL597577]
[1]; ref Roumen et al., 2010
  IC50: 59 nM

## c1ccc2c(c1)ncn2CC12CC3CC(CC(C3)C1)C2 [CHEMBL1651506]
[2]; ref Hille et al., 2011b
  IC50: 75 nM

## CC(C)C(c1ccc(-c2ccccc2)nc1)n1ccnc1 (centres unmarked) [CHEMBL2417622]
[1]; ref Emmerich et al., 2013
  IC50: 28 nM
